Data as given in publication PMC7051184, “C9orf72 arginine-rich dipeptide repeat proteins disrupt karyopherin-mediated nuclear import” (eLife, 2020).
Where a SMILES comes first, the peptide text is derived from it.

How the values were obtained:
Nup54 = experiment: DPR aggregation assay and western blot, Nup54; type: biochemical, human; conditions: 100 µM 10mer in 2.5 mg/ml HEK lysate; Blot 1; normalized to untreated HEK
Method: Supernatant and pellet fractions (for all 5 DPRs, and control/buffer only) were prepared as in the nuclear transport assays, by adding 100 µM 10mers to 2.5 mg/ml HEK lysate in 100 µL TRB. Supernatants were boiled in Laemmli (BioRad) for 5 min. Pellets were boiled for 15 min followed by sonication in order to fully disperse aggregates for SDS-PAGE. Equal volumes of supernatant and pellet fractions were run on 4–12% Bolt Bis-Tris Plus gels (ThermoFisher), transferred to nitrocellulose membrane using an iBlot2 dry blotting system (ThermoFisher). Protein loading was analyzed by BLOT-Faststain (G-biosciences, St. Louis, MO), according to the manufacterers’ instructions. For immunodetection, membranes were blocked with 5% non-fat milk in TBST and probed by sequential incubation with the primary antibodies as detailed in the table below. Detection was by HRP-conjugated secondary antibodies/chemiluminescence using an ImageQuant LAS 4000 system (GE, Chicago, IL). To permit sequential probing of membranes without stripping, signals were quenched by incubation with prewarmed 30% H20_2 for 20 min ([Sennepin et al., 2009]). Band intensities were measured by ImageQuant software. For pellet vs. supernatant fractions, all were expressed as percent untreated control. […]

importin β = experiment: Bead halo assay, biotinylated importin β on neutravidin beads; type: binding, human; conditions: AF488-labeled; 1 mg/ml neuronal lysate added
Method: To prepare biotinylated WT importin β-Avitag (pKW1982, pK1099), BL21DE3 cells (New England Biolabs, Ipswich, MA) were co-transfected with the respective plasmids together with pAC-biotin ligase (Avidity), followed by plating and growth in LB media containing ampicillin and chloramphenicol. After the 37°C cultures reached OD600nm + 0.4–0.6, the cultures were cooled to room temperature, supplemented with 100 µM D-biotin, and the expression was induced with 0.3 mM IPTG at room temperature for 8–11 hr (pKW762). Proteins were purified on Ni-NTA resin as described for the non-biotinylated importin β fragments.
The bead halo assay was carried out as described with minor modifications ([Patel and Rexach, 2008]), using […] polystyrene beads coated with neutravidin (for biotinylated proteins) or glutathione (for GST-fusion proteins) (Spherotech, Lake Forest, IL). Beads were coated overnight at 4°C at saturating concentrations per manufacturers’ instructions and rinsed 2x in binding buffer (20 mM HEPES [pH 7.4], 150 mM KOAc, 2 mM Mg(OAc)2, 1 mM DTT, 0.1% Tween-20). Immediately prior to the assay, fluorescent bait proteins and beads were combined with 4x assay buffer (40 mM EDTA, 40 mg/ml BSA, 500 mM NaCl, and 0.2% Tween) to a total of 40 µL per well, in optical glass-bottom 96-well plates (Cellvis, Mountain View, CA). […]

RCC1 = experiment: DPR aggregation assay and western blot, RCC1 (negative control); type: biochemical, human; conditions: 100 µM 10mer in 2.5 mg/ml HEK lysate, normalized to untreated HEK
Method: Supernatant and pellet fractions (for all 5 DPRs, and control/buffer only) were prepared as in the nuclear transport assays, by adding 100 µM 10mers to 2.5 mg/ml HEK lysate in 100 µL TRB. Supernatants were boiled in Laemmli (BioRad) for 5 min. Pellets were boiled for 15 min followed by sonication in order to fully disperse aggregates for SDS-PAGE. Equal volumes of supernatant and pellet fractions were run on 4–12% Bolt Bis-Tris Plus gels (ThermoFisher), transferred to nitrocellulose membrane using an iBlot2 dry blotting system (ThermoFisher). Protein loading was analyzed by BLOT-Faststain (G-biosciences, St. Louis, MO), according to the manufacterers’ instructions. For immunodetection, membranes were blocked with 5% non-fat milk in TBST and probed by sequential incubation with the primary antibodies as detailed in the table below. Detection was by HRP-conjugated secondary antibodies/chemiluminescence using an ImageQuant LAS 4000 system (GE, Chicago, IL). To permit sequential probing of membranes without stripping, signals were quenched by incubation with prewarmed 30% H20_2 for 20 min ([Sennepin et al., 2009]). Band intensities were measured by ImageQuant software. For pellet vs. supernatant fractions, all were expressed as percent untreated control. For blots in Figure 1E, samples were run on 4–20% SDS PAGE minigels (ThermoFisher) and blotted to PVDF membranes (Immun-Blot PVDF, Bio-Rad) using the Bio-Rad TransBlot Turbo apparatus, and probed as above. The chemiluminescence signal was captured with a Bio-Rad ChemiDoc XRS+ digital imaging system.

[1] = target: importin β-mediated nuclear import of Rango (Homo sapiens, UniProt Q14974); experiment: Fractionated Rango transport assay (aggregates present or supernatant only), HeLa; type: cell-based
Chain of importin β-mediated nuclear import of Rango (Q14974 whole entry): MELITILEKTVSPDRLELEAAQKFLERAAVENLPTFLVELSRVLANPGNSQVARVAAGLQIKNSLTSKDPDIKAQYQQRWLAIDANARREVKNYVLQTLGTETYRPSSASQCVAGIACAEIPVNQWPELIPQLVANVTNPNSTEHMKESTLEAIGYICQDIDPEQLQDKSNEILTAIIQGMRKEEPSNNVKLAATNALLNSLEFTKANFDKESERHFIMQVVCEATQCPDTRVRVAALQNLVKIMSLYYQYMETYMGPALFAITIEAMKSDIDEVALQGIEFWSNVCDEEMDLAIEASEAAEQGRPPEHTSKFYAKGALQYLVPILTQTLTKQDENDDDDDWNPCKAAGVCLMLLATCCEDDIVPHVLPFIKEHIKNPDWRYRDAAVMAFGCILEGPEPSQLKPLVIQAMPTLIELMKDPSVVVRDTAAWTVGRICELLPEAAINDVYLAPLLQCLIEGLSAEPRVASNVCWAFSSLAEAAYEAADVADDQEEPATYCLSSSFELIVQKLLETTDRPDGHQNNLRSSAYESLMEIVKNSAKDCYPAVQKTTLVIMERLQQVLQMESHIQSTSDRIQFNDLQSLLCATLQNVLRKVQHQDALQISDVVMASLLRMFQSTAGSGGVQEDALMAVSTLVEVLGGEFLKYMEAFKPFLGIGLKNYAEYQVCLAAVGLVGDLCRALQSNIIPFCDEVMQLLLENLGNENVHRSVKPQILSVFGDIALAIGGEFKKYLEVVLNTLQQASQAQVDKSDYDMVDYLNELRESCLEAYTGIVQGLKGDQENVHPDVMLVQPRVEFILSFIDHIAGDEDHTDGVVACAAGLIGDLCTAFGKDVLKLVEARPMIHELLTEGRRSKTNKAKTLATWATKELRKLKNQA
Method: A single cell-derived clone of HeLa cells (ATCC, Manassas, VA; mycoplasma negative and validated by STR profiling) were maintained in OptiMEM (Gibco/ThermoFisher) with 4% FBS and plated on uncoated optical glass-bottom 96 well plates, at appropriate densities to reach 70–90% confluence on the day of the transport assay. To permeabilize, cells were rinsed for 2 min in ice-cold PBS, and permeabilized on ice for 10 min in 15–30 µg/mL digitonin (Calbiochem, San Diego, CA) in permeabilization buffer (PRB, 20 mM HEPES, 110 mM KOAc, 5 mM Mg(OAc)2, 0.5 mM EGTA, 250 mM sucrose, pH 7.5, with protease inhibitor cocktail). Following permeabilization, cells were placed on ice and rinsed 3 × 5 min in transport buffer (TRB, 20 mM HEPES, 110 mM KOAc, 2 mM Mg(OAc)2, 5 mM NaOAc, 0.5 mM EGTA, 250 mM sucrose, pH 7.3, with protease inhibitor cocktail). The optimal digitonin concentration varied by cell density and passage number, and was optimized prior to each set of assays for the ability to permeabilize the majority of plasma membranes while maintaining nuclear exclusion of a 70 kD fluorescent dextran (ThermoFisher).
Reaction mixes consisting of 2.5 mg/ml lysate, ER, fluorescent cargo (200 nM Rango and YFP-M9-CFP, 500 nM GST-GFP-NLS), Hoechst, DPRs, RNA, or inhibitors (100 µM importazole (IPZ, Millipore Sigma); 0.8 mg/mL wheat germ agglutinin (WGA, Millipore Sigma) were assembled on ice during cell permeabilization. DPRs or inhibitors were allowed to equilibrate in cell lysate for at least 30 min prior to initiation of transport. Every plate included: (1) Cargo alone: fluorescent cargo, but no ER or lysate, (2) Untreated controls: fluorescent cargo, ER, and lysate, and (3) Inhibitor: fluorescent cargo, ER, lysate, and IPZ (Rango and GST-GFP-NLS reactions) or WGA (YFP-M9-CFP). Preassembled transport reactions were then transferred onto permeabilized cells via multichannel pipette, and allowed to proceed at room temperature for 2 hr (Rango, YFP-M9-CFP) or 4 hr (GST-GFP-NLS). Cells were fixed in 4% paraformaldehyde/PBS, rinsed 2x with PBS, and transferred to 50% glycerol/PBS for immediate imaging.
For a subset of neuron transport assays, transport was monitored live via time lapse imaging every 5 min for 30 min. […]
Multiple non-overlapping fields per well (4 for time-lapse imaging, 9-16 for fixed imaging), were captured at 40x on an ImageXpress Micro XLS high-content microscope (Molecular Devices, San Jose, CA), and the ratio of nuclear to cytoplasmic fluorescence intensity was calculated using the MetaXpress automated translocation-enhanced module. […] Resulting N/C ratios were expressed as % untreated, to permit comparisons across biological replicates.

N=C(N)NCCC[C@H](NC(=O)[C@@H]1CCCN1C(=O)[C@H](CCCNC(=N)N)NC(=O)[C@@H]1CCCN1C(=O)[C@H](CCCNC(=N)N)NC(=O)[C@@H]1CCCN1C(=O)[C@H](CCCNC(=N)N)NC(=O)[C@@H]1CCCN1C(=O)[C@H](CCCNC(=N)N)NC(=O)[C@@H]1CCCN1C(=O)[C@H](CCCNC(=N)N)NC(=O)[C@@H]1CCCN1C(=O)[C@H](CCCNC(=N)N)NC(=O)[C@@H]1CCCN1C(=O)[C@H](CCCNC(=N)N)NC(=O)[C@@H]1CCCN1C(=O)[C@H](CCCNC(=N)N)NC(=O)[C@@H]1CCCN1C(=O)[C@H](CCCNC(=N)N)NC(=O)[C@@H]1CCCN1)C(=O)O [PR10] (H-PRPRPRPRPRPRPRPRPRPR-OH; N-terminus and C-terminus assumed)
Nup54 band density, Pellet (Nup54): 143.4 % control
Nup54 band density, Supernatant (Nup54): 96.8 % control
Binding to importin β-coated beads (importin β): the intensity of the importin β halo persisted
RCC1 band density, Pellet (RCC1; Blot 1): 27.7 % control
RCC1 band density, Supernatant (RCC1; Blot 1): 103.7 % control
RCC1 band density, Pellet (RCC1; Blot 2): 109.0 % control
RCC1 band density, Supernatant (RCC1; Blot 2): 124.4 % control
Rango import with supernatant only (aggregates removed by centrifugation) [1]: nuclear import remained perturbed
Rango import with supernatant only plus RNA ([1]; RNA added): restored by the addition of RNA
